The source of these data is ChEMBL document CHEMBL4613209, “Quinolone hybrids and their anti-cancer activities: An overview” (Eur J Med Chem, 2019).

The target of one data set is Caspase-3 (Homo sapiens, UniProt P42574). Put plainly: Activation of caspase 3 in human SMMC7721 cells. The format is cell-based, SMMC-7721.
The target of the next data set is Caspase-9 (Homo sapiens, UniProt P55211). Put plainly: Activation of caspase 9 in human SMMC7721 cells. The format is cell-based, SMMC-7721.
Data set [1] relates to SMMC-7721. Put plainly: Antiproliferative activity against human SMMC7721 cells after 24 to 72 hrs by MTT assay. The data set is classed as functional, cell-based. For orientation: Formazan colour is commonly taken as a measure of viable cells.
In data set [2] the test system is Hep 3B2. Put plainly: Antiproliferative activity against human Hep3B cells after 24 to 72 hrs by MTT assay. The data set is classed as functional, cell-based.
For data set [3], the target named is Cellular tumor antigen p53 (Homo sapiens, UniProt P04637). Put plainly: Activation of p53 in human SMMC7721 cells. The format is cell-based, SMMC-7721.
The subject of data set [4] is L1210. Put plainly: Antiproliferative activity against mouse L1210 cells after 24 to 72 hrs by MTT assay. The data set is classed as functional, cell-based.
For data set [5], the system named is HL-60. Put plainly: Antiproliferative activity against human HL60 cells after 24 to 72 hrs by MTT assay. The format is functional, cell-based.
The target in a further data set is Apoptosis regulator BAX (Homo sapiens, UniProt Q07812). Put plainly: Activation of Bax in human SMMC7721 cells. The format is cell-based, SMMC-7721.
For a further data set, the system named is MDA-MB-231. Put plainly: Growth inhibition of human MDA-MB-231 cells after 48 hrs by SRB assay. The data set is classed as functional. Particulars: MDA-MB-231, 48 h.
The subject of the next data set is PANC-1. Put plainly: Growth inhibition of human PANC1 cells after 48 hrs by SRB assay. The format is functional. The settings on record: PANC-1, 48 h. (In general: Sulforhodamine B stains cellular protein and so reports cell mass.)
The next data set has as its system SiHa. Put plainly: Growth inhibition of human SiHa cells after 48 hrs by SRB assay. The format is functional.
For another data set, the system named is NCI/ADR-RES. Put plainly: Cytotoxicity against human MCF7/ADR cells assessed as reduction in cell viability by MTT assay. The format is functional, cell-based.
The subject of data set [6] is SMMC-7721. Put plainly: Cytotoxicity against human SMMC7721 cells assessed as reduction in cell viability by MTT assay. The format is functional, cell-based.
The next data set deals with SW1990. Put plainly: Cytotoxicity against human SW1990 cells assessed as reduction in cell viability by MTT assay. The data set is classed as functional, cell-based.
Another data set deals with HUVEC. Put plainly: Cytotoxicity against human HUVEC cells assessed as reduction in cell viability by MTT assay. The data set is classed as cell-based.
Data set [7] relates to MCF7. Put plainly: Cytotoxicity against human MCF7 cells assessed as reduction in cell viability by MTT assay. The data set is classed as functional, cell-based.
Data set [8] concerns Hep 3B2. Put plainly: Cytotoxicity against human Hep3B cells assessed as reduction in cell viability. The data set is classed as functional, cell-based.
The subject of data set [9] is CAPAN-1. Put plainly: Potency index, ratio of IC50 for doxorubicin to IC50 for test compound for cytotoxicity against human Capan1 cells assessed as reduction in cell viability. The format is functional.
Data set [10] relates to Hep 3B2. Put plainly: Potency index, ratio of IC50 for doxorubicin to IC50 for test compound for cytotoxicity against human Hep3B cells assessed as reduction in cell viability. The format is functional.
Data set [11] relates to HL-60. Put plainly: Cytotoxicity against human HL60 cells assessed as reduction in cell viability. The format is functional, cell-based.
Data set [12] deals with CAPAN-1. Put plainly: Cytotoxicity against human Capan1 cells assessed as reduction in cell viability. The format is functional, cell-based.
In data set [13] the test system is HL-60. Put plainly: Potency index, ratio of IC50 for doxorubicin to IC50 for test compound for cytotoxicity against human HL60 cells assessed as reduction in cell viability. The data set is classed as functional.
The test system of another data set is HCT-8. Put plainly: Antiproliferative activity against human HCT8 cells after 48 hrs by MTT assay. Particulars: HCT-8, 48 h. The format is functional, cell-based.
Data set [14] relates to HeLa. Put plainly: Antiproliferative activity against human HeLa cells after 48 hrs by MTT assay. The data set is classed as functional, cell-based.
Data set [15] concerns HCT-116. Put plainly: Antiproliferative activity against human HCT116 cells after 48 hrs by MTT assay. The data set is classed as functional, cell-based. Particulars: HCT-116, 48 h.
Data set [16] relates to HL-60. Put plainly: Anticancer activity against human HL60 cells by MTT assay. The data set is classed as functional, cell-based.
A further data set relates to A549. Put plainly: Anticancer activity against human A549 cells by MTT assay. The data set is classed as functional, cell-based.
In data set [17] the test system is HeLa. Put plainly: Anticancer activity against human HeLa cells by MTT assay. The format is functional, cell-based.
The next data set relates to HepG2. Put plainly: Anticancer activity against human HepG2 cells by MTT assay. The data set is classed as functional, cell-based.
The next data set relates to HT-29. Put plainly: Anticancer activity against human HT-29 cells by MTT assay. The data set is classed as functional, cell-based.
Data set [18] has as its system L1210. Put plainly: Potency index, ratio of TD50 for doxorubicin to TD50 for test compound for cytotoxicity against mouse L1210 cells assessed as reduction in cell viability. The format is functional.
Data set [19] relates to MCF7. Put plainly: Potency index, ratio of TD50 for doxorubicin to TD50 for test compound for cytotoxicity against human MCF7 cells assessed as reduction in cell viability. The data set is classed as functional.
Another data set has as its system OVCAR-3. Put plainly: Potency index, ratio of TD50 for doxorubicin to TD50 for test compound for cytotoxicity against human OVCAR3 cells assessed as reduction in cell viability. The format is functional.
Data set [20] can be described thus: Potency index, ratio of TD50 for doxorubicin to TD50 for test compound for cytotoxicity against human SW403 cells assessed as reduction in cell viability. The data set is classed as functional.
A further data set has as its system KB. Put plainly: Potency index, ratio of TD50 for doxorubicin to TD50 for test compound for cytotoxicity against human KB cells assessed as reduction in cell viability. The data set is classed as functional.
A further data set deals with CCRF S-180. Put plainly: Antitumor activity against mouse S180 cells xenografted in mouse assessed as reduction in tumor weight at 10 mg/kg relative to control. The data set is classed as functional. On the set-up: scale not given: the % may be the effect or the level left.
The test system of the next data set is MRC5. Put plainly: Cytotoxicity against human MRC5 cells assessed as reduction in cell viability. The settings on record: read-out: TD50 (the source's name). The format is functional.
The nature of data set [21]: Cytotoxicity against human WI38 cells assessed as reduction in cell viability. Particulars: WI-38 cells, read-out: TD50 (the source's name). The format is cell-based.
The test system of data set [22] is HeLa. Put plainly: Cytotoxicity against human HeLa cells assessed as reduction in cell viability after 24 to 72 hrs by MTT assay. The data set is classed as functional, cell-based.
The subject of data set [23] is L1210. Put plainly: Cytotoxicity against mouse L1210 cells assessed as reduction in cell viability after 24 to 72 hrs by MTT assay. The format is functional, cell-based.
In data set [24] the test system is HCT-116. Put plainly: Anticancer activity against human HCT116 cells after 48 to 72 hrs by MTT assay. The format is functional, cell-based.
The subject of the next data set is Jurkat. Put plainly: Anticancer activity against human Jurkat cells after 48 to 72 hrs by MTT assay. The data set is classed as functional, cell-based.
The subject of data set [25] is SMMC-7721. Put plainly: Anticancer activity against human SMMC7721 cells after 48 to 72 hrs by MTT assay. The data set is classed as functional, cell-based.
Data set [26] has as its system Hep 3B2. Put plainly: Anticancer activity against human Hep3B cells after 48 to 72 hrs by MTT assay. The data set is classed as functional, cell-based.
In the next data set the test system is K562. Put plainly: Anticancer activity against human K562 cells after 48 to 72 hrs by MTT assay. The data set is classed as functional, cell-based.

Converted amounts (≈) assume the structure as drawn. Some results are limits rather than exact numbers.

What is called IC50 is the concentration that gives 50% inhibition. For orientation: GI50 means the concentration that inhibits growth by half.

Chain of Cellular tumor antigen p53 (P04637 whole entry): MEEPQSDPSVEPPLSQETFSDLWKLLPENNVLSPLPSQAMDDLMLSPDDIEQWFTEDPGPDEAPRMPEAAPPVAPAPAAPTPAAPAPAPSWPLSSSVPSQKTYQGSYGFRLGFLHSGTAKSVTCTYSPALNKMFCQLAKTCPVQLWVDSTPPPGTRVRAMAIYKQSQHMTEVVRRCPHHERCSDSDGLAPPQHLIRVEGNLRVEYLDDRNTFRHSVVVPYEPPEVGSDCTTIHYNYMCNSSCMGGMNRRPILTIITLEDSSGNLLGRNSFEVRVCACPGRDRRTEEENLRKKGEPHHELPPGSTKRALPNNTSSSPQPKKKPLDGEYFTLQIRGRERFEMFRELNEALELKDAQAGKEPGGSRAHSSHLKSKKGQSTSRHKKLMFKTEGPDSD
Chain of Apoptosis regulator BAX (Q07812 whole entry): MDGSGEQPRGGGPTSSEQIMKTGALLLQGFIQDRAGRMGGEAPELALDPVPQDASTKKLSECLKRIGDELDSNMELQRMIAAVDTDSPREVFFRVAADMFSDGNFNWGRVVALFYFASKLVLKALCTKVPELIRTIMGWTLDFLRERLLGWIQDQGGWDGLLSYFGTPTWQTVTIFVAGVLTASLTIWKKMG
Chain of Caspase-9 (P55211 1-315 limits assumed): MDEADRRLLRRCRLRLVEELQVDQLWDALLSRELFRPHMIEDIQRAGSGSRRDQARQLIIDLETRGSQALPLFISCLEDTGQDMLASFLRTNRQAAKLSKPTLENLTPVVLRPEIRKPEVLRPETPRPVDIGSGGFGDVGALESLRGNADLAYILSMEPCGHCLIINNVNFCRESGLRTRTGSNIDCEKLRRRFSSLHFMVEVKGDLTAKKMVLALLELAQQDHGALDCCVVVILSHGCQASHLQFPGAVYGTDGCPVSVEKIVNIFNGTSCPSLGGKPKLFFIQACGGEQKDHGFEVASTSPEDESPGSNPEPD
Chain of Caspase-9 (P55211 331-416 limits assumed): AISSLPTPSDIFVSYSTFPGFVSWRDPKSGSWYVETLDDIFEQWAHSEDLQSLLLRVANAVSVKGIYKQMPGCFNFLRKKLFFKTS
Chain of Caspase-3 (P42574 29-175 limits assumed): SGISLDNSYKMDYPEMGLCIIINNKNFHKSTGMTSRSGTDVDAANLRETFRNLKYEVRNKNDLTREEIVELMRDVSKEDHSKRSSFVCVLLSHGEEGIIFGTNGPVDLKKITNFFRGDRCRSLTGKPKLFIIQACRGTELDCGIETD
Chain of Caspase-3 (P42574 176-277 limits assumed): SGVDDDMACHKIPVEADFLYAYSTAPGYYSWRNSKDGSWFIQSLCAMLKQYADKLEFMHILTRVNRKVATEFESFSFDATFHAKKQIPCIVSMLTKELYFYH

For `O=C(N/N=C/c1ccc2c(c1)OCO2)c1cn(C2CC2)c2cc(N3CCNCC3)c(F)cc2c1=O`, the IC50 on Caspase-3 lay in the range of 3 to 7.39 µM; on Caspase-9, 3 to 7.39 µM; with SMMC-7721 [1], 1.4 to 52.3 µM; in the data set on Hep 3B2 [2], 1.4 to 52.3 µM; in data set [3], 3 to 7.39 µM; in the data set on L1210 [4], 1.4 to 52.3 µM. The figures for the IC50 in the data set with HL-60 [5] and against Apoptosis regulator BAX were 1.4 to 52.3 µM and 3 to 7.39 µM, respectively.
For `CCn1cc(C(=O)O)c(=O)c2cnc(N3CCN(C(=O)CCSc4nnnn4-c4ccc(Br)cc4)CC3)nc21`, the GI50 in the data set with MDA-MB-231 is 220 nM; in the data set with PANC-1, 70 nM; in the data set with SiHa it was 80 nM.
As for `COc1ccc2cc3[n+](cc2c1OCc1cn(Cc2cc(=O)[nH]c4ccccc24)nn1)-c1cc2c(cc1CC3)OCO2`, the half-inhibitory concentration (IC50) in the data set with NCI/ADR-RES, in the data set on SMMC-7721 [6], in the data set with SW1990, in the data set with HUVEC and with MCF7 [7] was 75.5 to 181 µM each time.
Take `CN1CCN(c2cc3c(cc2F)c(=O)c(-c2nc4s/c(=C\c5ccc(S(N)(=O)=O)cc5)c(=O)n4n2)cn3C2CC2)CC1`: the IC50 is 700 nM with Hep 3B2 [8], 1500 nM in the data set on HL-60 [11] and 300 nM in the data set on CAPAN-1 [12]. Further, the “Ratio IC50” value in the data set on CAPAN-1 [9], in the data set with Hep 3B2 [10] and with HL-60 [13] was 2.3 - 5.6 each time.
Regarding `COc1ccc(C2CC(c3c(-c4ccccc4)c4ccccc4[nH]c3=O)=NN2c2ccccc2)cc1` (stereo not drawn), the concentration for half-maximal inhibition (IC50) with HCT-8 was 5.6 µM; with HeLa [14], 2400 nM; with HCT-116 [15], 2200 nM.
Take `CCOC(=O)c1cn(Cc2cn(-c3ccc(Cl)cc3)nn2)c2ccc(F)cc2c1=O`: the IC50 with HL-60 [16], in the data set on A549, in the data set with HeLa [17], in the data set with HepG2 and with HT-29 was 13.1 to 70.2 µM in each case.
In the case of `CCn1cc(C(=O)O)c(=O)c2cnc(N3CCN(C(=O)CCSc4nnnn4-c4cc(OC)c(OC)c(OC)c4)CC3)nc21`, the 50% growth inhibitory concentration (GI50) in the data set on MDA-MB-231, in the data set with PANC-1 and with SiHa was 60 to 2000 nM each time.
For `Cc1cn(-c2ccc(CCCCCCCCCCn3ccc(=O)c4c(N)cccc43)cc2)nn1`, the Ratio result (with L1210 [18]; with MCF7 [19]; in the data set with OVCAR-3; in data set [20]; in the data set on KB) was “>=4.6” each time. Moreover, the Activity with CCRF S-180 is given as 13.1%. For the same compound, the values for the CC50 (with MRC5; in [21]) were 0.033 µg/mL (≈ 0.0721 µM) and 7.45 µg/mL (≈ 16.3 µM), respectively.
Regarding `CCOC(=O)c1cn(CC)c2c(ccc3n[se]nc32)c1=O`, the half-inhibitory concentration (IC50) with HeLa [22] and in the data set with L1210 [23] was not above 100 µM each time.
As for `COc1cc(/C=N/n2c(SCc3ccccc3)nnc2-c2cn(C3CC3)c3cc(N4CCNCC4)c(F)cc3c2=O)cc(OC)c1OC`, the IC50 with HCT-116 [24], in the data set on Jurkat and in the data set on SMMC-7721 [25] was less than 50 µM in each case.
On to `O=c1c(/C(CCN2CCOCC2)=N/Nc2ccccc2)c(O)c2ccccc2n1-c1ccccc1`, for which the 50% inhibitory concentration (IC50) with Hep 3B2 [26] and in the data set with K562 was less than 20 µg/mL throughout.
